# In PubChem BioAssay (NCI):
#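 Five compound concentrations were applied to cells in 96-well plates for 48 hours; endpoints were derived by simple linear interpolation of the resulting dose-response curve. GI50 is the concentration that inhibits growth by half. TGI: concentration producing complete growth inhibition.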
# What was measured:
# Test in all cases: NCI-60 cell line screen, 48 h
# [1] = test system: U251 CNS
# [2] = test system: MALME-3M melanoma
# [3] = test system: UACC-257 melanoma
# [4] = test system: SK-MEL-5 melanoma
# [5] = test system: SK-OV-3 ovarian
# [6] = test system: LOX IMVI melanoma
# [7] = test system: DU-145 prostate
# [8] = test system: NCI/ADR-RES ovarian
# [9] = test system: SK-MEL-28 melanoma
# [10] = test system: CCRF-CEM leukemia
# [11] = test system: A498 renal
# [12] = test system: HCT-116 colon
# [13] = test system: SW-620 colon
# [14] = test system: HT29 colon
# [15] = test system: MOLT-4 leukemia
# [16] = test system: EKVX NSCLC
# [17] = test system: RPMI-8226 leukemia
# [18] = test system: T-47D breast
# [19] = test system: SF-295 CNS
# [20] = test system: HL-60(TB) leukemia
# [21] = test system: SR leukemia
# [22] = test system: HS 578T breast
# [23] = test system: HOP-62 NSCLC
# [24] = test system: UO-31 renal
# [25] = test system: A549 NSCLC
# [26] = test system: NCI-H460 lung
# [27] = test system: OVCAR-5 ovarian
# [28] = test system: K-562 leukemia
# [29] = test system: MCF7 breast
# [30] = test system: MDA-MB-231 breast
# [31] = test system: SNB-19 CNS
# [32] = test system: HCC-2998 colon
# [33] = test system: SNB-75 CNS
# [34] = test system: SK-MEL-2 melanoma
# [35] = test system: TK-10 renal
# [36] = test system: KM12 colon
# [37] = test system: COLO 205 colon
# [38] = test system: NCI-H23 lung
# [39] = test system: OVCAR-3 ovarian
# [40] = test system: HCT-15 colon
# [41] = test system: PC-3 prostate
# [42] = test system: ACHN renal
# [43] = test system: OVCAR-8 ovarian
# [44] = test system: 786-0 renal
# [45] = test system: SF-268 CNS
# [46] = test system: CAKI-1 renal
# [47] = test system: OVCAR-4 ovarian
# [48] = test system: SN12C renal
# [49] = test system: IGROV1 ovarian
# [50] = test system: MDA-N
# [51] = test system: UACC-62 melanoma
# [52] = test system: NCI-H522 lung
# [53] = test system: MDA-MB-435
# [54] = test system: RXF 393 renal
# [55] = test system: M14 melanoma
# [56] = test system: HOP-92 NSCLC
# [57] = test system: NCI-H226 lung
# [58] = test system: SF-539 CNS
smiles,measurement,setting,value
CC1CN=C(N(C(=O)Nc2ccccc2)c2ccccc2)S1 (stereo unspecified),TGI,[1],> 100 µM
same,TGI,[2],58.8 µM
same,TGI,[3],64.7 µM
same,TGI,[4],31.8 µM
same,TGI,[5],> 100 µM
same,TGI,[6],37.4 µM
same,TGI,[7],> 100 µM
same,TGI,[8],71.5 µM
same,TGI,[9],31.9 µM
same,TGI,[10],64 µM
same,TGI,[11],51.2 µM
same,TGI,[12],> 100 µM
same,TGI,[13],> 100 µM
same,TGI,[14],36.6 µM
same,TGI,[15],61.6 µM
same,TGI,[16],> 100 µM
same,TGI,[17],67.9 µM
same,TGI,[18],> 100 µM
same,TGI,[19],> 100 µM
same,TGI,[20],66.4 µM
same,TGI,[21],81.5 µM
same,TGI,[22],> 100 µM
same,TGI,[23],> 100 µM
same,TGI,[24],> 100 µM
same,TGI,[25],> 100 µM
same,TGI,[26],> 100 µM
same,TGI,[27],> 100 µM
same,TGI,[28],> 100 µM
same,TGI,[29],49.7 µM
same,TGI,[30],> 100 µM
same,TGI,[31],> 100 µM
same,TGI,[32],> 100 µM
same,TGI,[33],> 100 µM
same,TGI,[34],40.5 µM
same,TGI,[35],94.2 µM
same,TGI,[36],> 100 µM
same,TGI,[37],> 100 µM
same,TGI,[38],> 100 µM
same,TGI,[39],82.2 µM
same,TGI,[40],> 100 µM
same,TGI,[41],> 100 µM
same,TGI,[42],> 100 µM
same,TGI,[43],> 100 µM
same,TGI,[44],> 100 µM
same,TGI,[45],> 100 µM
same,TGI,[46],> 100 µM
same,TGI,[47],> 100 µM
same,TGI,[48],62.9 µM
same,TGI,[49],> 100 µM
same,TGI,[50],48.2 µM
CCCc1cc2c(cc1O)CC[C@@H]1[C@@H]2CC[C@]2(C)[C@@H](O)CC[C@@H]12,TGI,[1],20.3 µM
same,TGI,[2],27.9 µM
same,TGI,[3],25.8 µM
same,TGI,[4],22.4 µM
same,TGI,[5],29.1 µM
same,TGI,[6],24 µM
same,GI50,[7],18.8 µM
same,TGI,[7],32.8 µM
same,TGI,[8],27.1 µM
same,GI50,[51],6.02 µM
same,TGI,[51],19.4 µM
same,TGI,[9],25.8 µM
same,TGI,[52],24.9 µM
same,TGI,[10],20.9 µM
same,TGI,[11],32.3 µM
same,GI50,[12],6.54 µM
same,TGI,[12],19.8 µM
same,GI50,[53],2.19 µM
same,TGI,[53],5.1 µM
same,TGI,[13],17.2 µM
same,TGI,[14],31.1 µM
same,TGI,[15],20.4 µM
same,TGI,[16],26.2 µM
same,TGI,[18],32.6 µM
same,TGI,[19],17.8 µM
same,TGI,[20],29.7 µM
same,TGI,[21],13.4 µM
same,TGI,[22],32.3 µM
same,GI50,[23],16 µM
same,TGI,[23],34.2 µM
same,TGI,[24],24.6 µM
same,TGI,[25],22.9 µM
same,TGI,[26],24.4 µM
same,TGI,[27],34.7 µM
same,TGI,[28],13.6 µM
same,TGI,[54],22.1 µM
same,TGI,[30],40.8 µM
same,TGI,[55],23 µM
same,TGI,[31],26.3 µM
same,TGI,[32],33 µM
same,TGI,[33],29.3 µM
same,TGI,[56],33.6 µM
same,TGI,[34],30.2 µM
same,TGI,[35],30.1 µM
same,TGI,[36],22.6 µM
same,TGI,[37],34.5 µM
same,TGI,[57],27.5 µM
same,TGI,[38],29.2 µM
same,TGI,[39],24.4 µM
same,TGI,[40],18.1 µM
same,TGI,[41],34.5 µM
same,TGI,[42],25.6 µM
same,TGI,[43],29.1 µM
same,TGI,[44],26.6 µM
same,TGI,[45],28.6 µM
same,TGI,[46],24.8 µM
same,TGI,[47],32.7 µM
same,TGI,[48],24.7 µM
same,TGI,[49],30.2 µM
same,TGI,[50],6.05 µM
same,TGI,[58],24.4 µM
